In the NIST ThermoML archive (doi:10.1021/acs.jced.7b00945):
Numbers after ± are expanded uncertainties.

Key:
[1] = refractive index (Na D-line) (dimensionless); wn = mass fraction of the nth substance listed; details: 303 K, 100 kPa, Liquid, Standard Abbe refractometry
[2] = refractive index (Na D-line) (dimensionless); details: 303 K; 100 kPa; Liquid; Standard Abbe refractometry

Compound	refractive index ([1]; w2 = 0.3)	refractive index ([1]; w2 = 0.41)	refractive index ([1]; w2 = 0.5)	refractive index ([1]; w2 = 0.6)	refractive index ([1]; w2 = 0.7)	refractive index ([1]; w2 = 0.8)	refractive index ([1]; w1 = 1)	further results
OCCO [1,2-ethanediol] + O	1.4008 ± 0.00038	1.38994 ± 0.00038	1.38106 ± 0.00038	1.37126 ± 0.00038	1.36074 ± 0.00038	1.35122 ± 0.00038		refractive index ([1]; w2 = 0.1): 1.4196 ± 0.00038; refractive index ([1]; w2 = 0.2): 1.41005 ± 0.00038; refractive index ([1]; w2 = 0.89): 1.34168 ± 0.00037
O [water] + OCCOCCO							1.33179 ± 0.00032	
O [water] + OCCOCCOCCO							1.33179 ± 0.00032	
O [water] + OCCO							1.33179 ± 0.00032	
O [water]								refractive index [2]: 1.33179 ± 0.00032
OCCOCCOCCO [triethylene glycol] + O	1.41992 ± 0.00042	1.40643 ± 0.00043	1.39413 ± 0.00042	1.38175 ± 0.00042	1.36838 ± 0.00041	1.35616 ± 0.0004		refractive index ([1]; w2 = 0.1): 1.44204 ± 0.00042; refractive index ([1]; w2 = 0.21): 1.43047 ± 0.00042; refractive index ([1]; w2 = 0.9): 1.34378 ± 0.0004
OCCOCCO [diethylene glycol] + O	1.41341 ± 0.00041	1.40107 ± 0.00042	1.38922 ± 0.00041	1.37817 ± 0.0004	1.36617 ± 0.0004	1.35413 ± 0.0004		refractive index ([1]; w2 = 0.11): 1.43408 ± 0.00043; refractive index ([1]; w2 = 0.2): 1.42406 ± 0.00042; refractive index ([1]; w2 = 0.9): 1.34259 ± 0.00039
O [water] + OCCOCCOCCOCCO							1.33179 ± 0.00032	
